The subject of this experiment is CDK12 and CDK13. In words: Pharmacodynamic study in MDA-MB-231 xenografted mouse model, Western blot of tumor tissues. In kind it is in vivo. The note with it: 100 and 200 mg/kg orally, 5 consecutive days, vs vehicle, MDA-MB-231 xenograft mice. The method, then:
We further performed pharmacodynamic studies of ZLC491 in an MDA-MB-231 xenografted mouse model. ZLC491 was orally administrated at two doses of 100 and 200 mg/kg, respectively, for 5 consecutive days (Figure 7A). Tumor tissues were harvested on day 5 and subjected to Western blot analysis. […] Additionally, we conducted further histological analysis on the tumors following ZLC491 treatment.
Figure 7 ZLC491 depleted CDK12 and CDK13 proteins in vivo. (A) Study design of pharmacodynamics assessment on target engagement of ZLC491 in the MDA-MB-231 xenograft model; (B) immunoblotting of CDK12, CDK13, and α-tubulin in tissue lysate of MDA-MB-231 xenografts model after ZLC491 treatment; (C) protein levels were quantified using ImageJ and normalized to corresponding α-tubulin, then plotted using GraphPad Prism 8.0; (D) immunohistochemistry (IHC) analysis on the tumors by H&E staining and TUNEL assays; (E) TUNEL histology scores were analyzed and plotted by GraphPad Prism 8.0; (F) body weight change during the treatment.
The pharmacodynamics experiments were performed under an approved animal protocol by the Institutional Animal Care & Use Committee of the University of Michigan. Six- to eight-week-old CB17SCID female (Charles River Laboratory) mice were in a regular SPF housing room prior to cell injection. […]
On the technique in general: A western blot detects proteins with antibodies after separation by electrophoresis.

These results are taken from article PMC11513923, “Discovery of ZLC491 as a Potent, Selective, and Orally Bioavailable CDK12/13 PROTAC Degrader” (Journal of Medicinal Chemistry, 2024).

On to `N#Cc1ccc(N[C@H]2CC[C@H](N(C(=O)NCc3ccccc3)c3ccc(N4CCN(C5CCN(c6cc7c(cc6F)C(=O)N(C6CCC(=O)NC6=O)C7=O)CC5)CC4)cc3)CC2)nc1` (stereo partly shown) [ZLC491, 3-Benzyl-1-((1r,4r)-4-((5-cyanopyridin-2-yl)amino)cyclohexyl)-1-(4-(4-(1-(2-(2,6-dioxopiperidin-3-yl)-6-fluoro-1,3-dioxoisoindolin-5-yl)piperidin-4-yl)piperazin-1-yl)phenyl)urea], for which the “CDK12 and CDK13 proteins in tumor tissues” value is recorded as “significantly depleted”.
